According to the NIST ThermoML archive (doi:10.1021/je901050v):
± gives the expanded uncertainty stated by the source.

Assays:
[1] = 101.33 kPa, Liquid; for mass density: Vibrating tube method; for viscosity: Concentric cylinders viscometry
[2] = refractive index (Na D-line) (dimensionless); details: 101.33 kPa, Liquid, Standard Abbe refractometry

Row | Compound | mass density ([1]; 308.15 K) [kg/m3] | viscosity ([1]; 313.15 K) [mPa·s] | mass density ([1]; 313.15 K) [kg/m3] | viscosity ([1]; 318.15 K) [mPa·s] | mass density ([1]; 318.15 K) [kg/m3] | viscosity ([1]; 323.15 K) [mPa·s] | mass density ([1]; 323.15 K) [kg/m3] | viscosity ([1]; 328.15 K) [mPa·s] | mass density ([1]; 328.15 K) [kg/m3] | viscosity ([1]; 333.15 K) [mPa·s] | mass density ([1]; 333.15 K) [kg/m3] | viscosity ([1]; 338.15 K) [mPa·s] | mass density ([1]; 338.15 K) [kg/m3] | viscosity ([1]; 343.15 K) [mPa·s] | mass density ([1]; 343.15 K) [kg/m3] | viscosity ([1]; 348.15 K) [mPa·s] | mass density ([1]; 348.15 K) [kg/m3] | viscosity ([1]; 353.15 K) [mPa·s] | mass density ([1]; 353.15 K) [kg/m3] | refractive index ([2]; 308.15 K) | further results
1 | CCCCCCCCCCn1cc[n+](CCC#N)c1.[Br-] [3-(2-cyanoethyl)-1-decyl-1H-imidazolium bromide] | 1134.2 ± 1 | 16702 ± 1300 | 1129.5 ± 1 | 10314 ± 740 | 1125.6 ± 1 | 6813.4 ± 450 | 1121.2 ± 1 | 4573.6 ± 280 | 1118.2 ± 1 | 3016.4 ± 170 | 1115 ± 1 | 2051.2 ± 100 | 1111.7 ± 1 | 1426.6 ± 65 | 1108.5 ± 1 | 1014.6 ± 42 | 1105.2 ± 1 | 737 ± 27 | 1101.9 ± 1 | 1.50786 ± 0.00037 | refractive index ([2]; 313.15 K): 1.50696 ± 0.00037; refractive index ([2]; 318.15 K): 1.50606 ± 0.00037; refractive index ([2]; 323.15 K): 1.50502 ± 0.00037; refractive index ([2]; 328.15 K): 1.50388 ± 0.00037; refractive index ([2]; 333.15 K): 1.50279 ± 0.00037
2 | CCCCn1cc[n+](CCC#N)c1.[Br-] [1-butyl-3-(2-cyanoethyl)-1H-imidazolium bromide] | 1297.7 ± 1.1 | 4502.1 ± 270 | 1294.3 ± 1.1 | 2953 ± 160 | 1291 ± 1.1 | 1989.7 ± 99 | 1287.6 ± 1.1 | 1377.5 ± 62 | 1284.4 ± 1.1 | 975.6 ± 39 | 1281.2 ± 1.1 | 705.8 ± 25 | 1277.9 ± 1.1 | 520.5 ± 17 | 1274.7 ± 1.1 | 390.7 ± 11 | 1271.4 ± 1.1 | 298.1 ± 7.4 | 1268.2 ± 1.1 | 1.54346 ± 0.00037 | mass density ([1]; 293.15 K): 1308.5 ± 1.1 kg/m3; viscosity ([1]; 298.15 K): 19103 ± 1500 mPa·s; mass density ([1]; 298.15 K): 1304.7 ± 1.1 kg/m3; viscosity ([1]; 303.15 K): 11304 ± 830 mPa·s; mass density ([1]; 303.15 K): 1301.1 ± 1.1 kg/m3; viscosity ([1]; 308.15 K): 7058.4 ± 470 mPa·s; refractive index ([2]; 298.15 K): 1.5454 ± 0.00037; refractive index ([2]; 303.15 K): 1.54454 ± 0.00037; refractive index ([2]; 313.15 K): 1.54229 ± 0.00037; refractive index ([2]; 318.15 K): 1.54111 ± 0.00037; refractive index ([2]; 323.15 K): 1.53992 ± 0.00037; refractive index ([2]; 328.15 K): 1.53869 ± 0.00037; refractive index ([2]; 333.15 K): 1.53748 ± 0.00037
3 | CCCCCCCCn1cc[n+](CCC#N)c1.[Br-] [3-(2-cyanoethyl)-1-octyl-1H-imidazolium bromide] | 1169.8 ± 1.1 | 13044 ± 980 | 1166.4 ± 1.1 | 8302.7 ± 570 | 1163 ± 1.1 | 5136.1 ± 320 | 1159.6 ± 1.1 | 3291.8 ± 190 | 1156.2 ± 1.1 | 2160.4 ± 110 | 1152.9 ± 1.1 | 1459.8 ± 67 | 1149.5 ± 1.1 | 1019.6 ± 42 | 1146.1 ± 1.1 | 727.9 ± 26 | 1142.8 ± 1.1 | 530.5 ± 17 | 1139.6 ± 1 | 1.51266 ± 0.00037 | mass density ([1]; 293.15 K): 1180.1 ± 1.1 kg/m3; mass density ([1]; 298.15 K): 1176.6 ± 1.1 kg/m3; mass density ([1]; 303.15 K): 1173.2 ± 1.1 kg/m3; viscosity ([1]; 308.15 K): 19620 ± 1600 mPa·s; refractive index ([2]; 298.15 K): 1.51473 ± 0.00037; refractive index ([2]; 303.15 K): 1.51362 ± 0.00037; refractive index ([2]; 313.15 K): 1.51149 ± 0.00037; refractive index ([2]; 318.15 K): 1.51024 ± 0.00037; refractive index ([2]; 323.15 K): 1.50891 ± 0.00037; refractive index ([2]; 328.15 K): 1.50757 ± 0.00037; refractive index ([2]; 333.15 K): 1.50604 ± 0.00037
4 | CCCCCCn1cc[n+](CCC#N)c1.[Br-] [3-(2-cyanoethyl)-1-hexyl-1H-imidazolium bromide] | 1222.3 ± 1.1 | 5610.4 ± 360 | 1219 ± 1.1 | 3602.1 ± 210 | 1215.7 ± 1.1 | 2379.9 ± 120 | 1212.4 ± 1.1 | 1618.2 ± 76 | 1209.1 ± 1.1 | 1128.4 ± 48 | 1205.8 ± 1.1 | 805.1 ± 30 | 1202.5 ± 1.1 | 639.6 ± 22 | 1199.2 ± 1.1 | 465.7 ± 14 | 1195.9 ± 1.1 | 359.3 ± 9.7 | 1192.7 ± 1.1 | 1.52719 ± 0.00037 | mass density ([1]; 293.15 K): 1232.4 ± 1.1 kg/m3; mass density ([1]; 298.15 K): 1229 ± 1.1 kg/m3; viscosity ([1]; 303.15 K): 15893 ± 1200 mPa·s; mass density ([1]; 303.15 K): 1225.6 ± 1.1 kg/m3; viscosity ([1]; 308.15 K): 9029.8 ± 630 mPa·s; refractive index ([2]; 298.15 K): 1.52872 ± 0.00037; refractive index ([2]; 303.15 K): 1.52823 ± 0.00037; refractive index ([2]; 313.15 K): 1.526 ± 0.00037; refractive index ([2]; 318.15 K): 1.52479 ± 0.00037; refractive index ([2]; 323.15 K): 1.52354 ± 0.00037; refractive index ([2]; 328.15 K): 1.52229 ± 0.00037; refractive index ([2]; 333.15 K): 1.52117 ± 0.00037
